Publication PMC5602538, “Assessment of the Drug Interaction Potential of Unconjugated and GalNAc3-Conjugated 2′-MOE-ASOs” (Molecular Therapy. Nucleic Acids, 2017)

How the values were obtained:
BCRP = conditions: Ko143 1 μM, 2 μM prazosin
CYP2C8 = biological target: T1, CYP2C8 (Homo sapiens, UniProt P10632); conditions: hepatocytes
T1 sequence (P10632 1-490): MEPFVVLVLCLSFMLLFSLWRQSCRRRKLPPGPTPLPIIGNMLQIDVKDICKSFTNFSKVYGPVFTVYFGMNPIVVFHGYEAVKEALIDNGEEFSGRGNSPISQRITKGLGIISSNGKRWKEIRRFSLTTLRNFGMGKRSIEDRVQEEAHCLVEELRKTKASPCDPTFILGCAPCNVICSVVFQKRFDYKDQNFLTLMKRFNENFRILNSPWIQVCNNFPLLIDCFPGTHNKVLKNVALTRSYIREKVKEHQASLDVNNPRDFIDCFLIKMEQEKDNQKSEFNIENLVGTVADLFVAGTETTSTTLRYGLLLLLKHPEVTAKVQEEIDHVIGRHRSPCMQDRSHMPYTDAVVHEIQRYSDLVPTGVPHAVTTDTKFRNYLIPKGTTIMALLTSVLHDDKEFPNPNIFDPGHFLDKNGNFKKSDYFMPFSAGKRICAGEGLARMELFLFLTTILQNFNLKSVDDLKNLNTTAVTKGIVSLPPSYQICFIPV
Method: Preincubations were performed in 50 μL of Williams’ Medium E with 2 mM salicylamide. The salicylamide was included to reduce possible phase II conjugation to the precursor phase I metabolites. […] Human hepatocytes (pooled from 5 donors) were thawed and prepared according to the vendor’s protocol. […] Incubations were carried out at 37°C with 5% CO2. The incubation time was 45 min for phenacetin, diclofenac, dextromethorphan, midazolam, bupropion, chlorzoxazone, and testosterone and 90 min for paclitaxel and (S)-mephenytoin. The reactions were stopped by adding 200 μL of ice-cold acetonitrile (can) with tolbutamide (100 ng/mL) as the internal standard to 100 μL of hepatocyte suspension (1:2, v/v). The 96-well plate was then vortexed at 1,700 rpm for 3 min and centrifuged at 3,500 rpm for 10 min at 20°C. The supernatants were analyzed using liquid chromatography-tandem MS (LC-MS/MS).

CYP1A2 mRNA = assay: in vitro; conditions: human
Method: (§1) Upon receipt, sandwich-cultured cryopreserved human hepatocytes (with Matrigel) plated on collagen-coated 24-well plates were inspected under a microscope for general morphology and viability. Fresh culture medium (OptiCulture Hepatocyte Media) was added to each plate that passed the visual inspection. The plates were then placed in an incubator set to 37°C with 5% carbon dioxide (CO2) for overnight acclimation. […] During this time, cells in parallel wells were also treated with 50.0 μM omeprazole (inducer of CYP1A2), 1,000 μM phenobarbital (inducer of CYP2B6), or 10.0 μM rifampicin (inducer of CYP3A4) in triplicate, respectively.
(§2) After collection of the supernatant for catalytic analysis, the remaining cells were washed and lysed with QIAGEN Buffer RLT from the QIAGEN RNeasy Kit. […]
(§3) The activity of each CYP enzyme was measured by comparing the peak area ratio of the corresponding product to the peak area ratio of the internal standard. The fold induction was calculated by dividing the peak area ratio of each individual well from the treatment group by the mean of the peak area ratios obtained from the vehicle control wells. […] The ΔCƬ was calculated as follows: ΔCƬ = CƬ (CYP) − CƬ (GAPDH). […] The ΔΔCƬ was calculated as follows: ΔΔCƬ = Δ CƬ (Treatment) − Δ CƬ (Vehicle). The fold induction of the target CYP was calculated using the following equation: Fold=2^-ΔΔCT.

CYP1A2 = CYP1A2 enzyme activity induction in plated human hepatocytes; conditions: human, probe phenacetin, 100 μM
Method: as §1
(§4) The plates were then incubated at 37°C with 5% CO2 for 60 min. […] Aliquots of the supernatants were analyzed by LC-MS/MS for the formation of acetaminophen, hydroxyl-bupropion, or hydroxyl-midazolam as markers for enzyme activity of CYP1A2, CYP2B6, and CYP3A4, respectively.
as §3, with “The fold induction of the target CYP was calculated using the following equation: Fold=2^-ΔΔCT.” left out

CYP2B6 = CYP2B6 enzyme activity induction in plated human hepatocytes; conditions: human
Method: as §1, §4
as §3, with “The fold induction of the target CYP was calculated using the following equation: Fold=2^-ΔΔCT.” left out

CYP2B6 mRNA = CYP2B6 mRNA induction in plated human hepatocytes; conditions: human
Method: as §1, §2, §3

OAT3 = system: T2, OAT3; assay: OAT3 inhibition study in MDCK cells; assay type: in vitro ADME; conditions: MDCK-II cell monolayer expressing OAT3, probe [3H]-p-aminohippurate; probenecid 100 μM, 10 μM p-aminohippurate; read-out: % inhibition of OAT3-mediated transport of p-aminohippurate, reference inhibitor
T2 construct: expressed in transfected cells; host or cells: MDCK-II
Method: A 96-well cell culture plate containing a monolayer of MDCK-II cells grown on a permeable support and a corresponding receiver tray was used. The basolateral compartment of the culture plate and wells were washed with warm HBSS three times, with wells of the culture plate serving as the apical compartment. The wash was aspirated by adding 150 μL of 37°C HBSS to both compartments. […] The pre-incubation buffer from both compartments was aspirated and 150 μL of the following was added to the basal compartment. […] OATP1B1, 2 μM [^3H]-estradiol-17 β-D-glucuronide; and OATP1B3, 2 μM [^3H]-cholecystokinin octapeptide (CCK-8). […] Plates were incubated at 37°C with orbital shaking at 60 rpm for 5 min. Both sides of the permeable support were washed four times with ice-cold PBS and 60 μL of cell extraction solution was added to each well. Plates were agitated for 15 min at 120 rpm, after which a 30-μL sample of the extract was collected. […] Test article concentrations, including control samples, were evaluated by an LC-MS method. Signal to noise for probe substrates was calculated by dividing the uptake of the probe substrate in transporter-expressing cells by the uptake of probe substrate in control cells not expressing the transporter of interest.

OCT2 = system: T3, OCT2; assay: OCT2 inhibition study in MDCK cells; assay type: in vitro ADME; conditions: MDCK-II cell monolayer expressing OCT2, probe [14C]-metformin, 10 μM; read-out: % inhibition of OCT2-mediated transport of metformin, reference inhibitor
T3 construct: expressed in transfected cells; host or cells: MDCK-II
Method: (§5) A 96-well cell culture plate containing a monolayer of MDCK-II cells grown on a permeable support and a corresponding receiver tray was used. The basolateral compartment of the culture plate and wells were washed with warm HBSS three times, with wells of the culture plate serving as the apical compartment. The wash was aspirated by adding 150 μL of 37°C HBSS to both compartments. Plates were incubated at 37°C with orbital shaking at 60 rpm for 15 min for OAT1, OAT3, OCT1, OCT2, OATP1B1, and OATP1B3 (±5 min). The pre-incubation buffer from both compartments was aspirated and 150 μL of the following was added to the basal compartment. […] Test article concentrations, including control samples, were evaluated by an LC-MS method.
(§6) Signal to noise for probe substrates was calculated by dividing the uptake of the probe substrate in transporter-expressing cells by the uptake of probe substrate in control cells not expressing the transporter of interest. Percent inhibition was calculated by dividing the net-transporter-mediated substrate uptake in the presence of the test article or the reference inhibitor by the net-transporter-mediated substrate uptake in the absence of the inhibitor according to the equation: %inhibition=100−(100×(transporter-mediateduptake)withinhibitor/(transporter-mediateduptake)withoutinhibitor).

OCT1 = system: T4, OCT1; assay: OCT1 inhibition study in MDCK cells; assay type: in vitro ADME; conditions: MDCK-II cell monolayer expressing OCT1, probe [3H]-MPP+, 2 μM; read-out: % inhibition of OCT1-mediated transport of MPP+, reference inhibitor
T4 construct: expressed in transfected cells; host or cells: MDCK-II
Method: as §5, §6

OATP1B1 = system: T5, OATP1B1; assay: OATP1B1 inhibition study in MDCK cells; assay type: in vitro ADME; conditions: MDCK-II cell monolayer expressing OATP1B1, probe [3H]-estradiol-17β-D-glucuronide; rifampicin 100 μM, 2 μM substrate; read-out: % inhibition of OATP1B1-mediated transport of estradiol-17β-D-glucuronide, reference inhibitor
T5 construct: expressed in transfected cells; host or cells: MDCK-II
Method: as §5, §6

OATP1B3 = system: T6, OATP1B3; assay: OATP1B3 inhibition study in MDCK cells; assay type: in vitro ADME; conditions: MDCK-II cell monolayer expressing OATP1B3, probe [3H]-cholecystokinin octapeptide (CCK-8); rifampicin 100 μM, 2 μM CCK-8; read-out: % inhibition of OATP1B3-mediated transport of CCK-8, reference inhibitor
T6 construct: expressed in transfected cells; host or cells: MDCK-II
Method: A 96-well cell culture plate containing a monolayer of MDCK-II cells grown on a permeable support and a corresponding receiver tray was used. The basolateral compartment of the culture plate and wells were washed with warm HBSS three times, with wells of the culture plate serving as the apical compartment. The wash was aspirated by adding 150 μL of 37°C HBSS to both compartments. Plates were incubated at 37°C with orbital shaking at 60 rpm for 15 min for OAT1, OAT3, OCT1, OCT2, OATP1B1, and OATP1B3 (±5 min). The pre-incubation buffer from both compartments was aspirated and 150 μL of the following was added to the basal compartment. […] Samples containing probe substrate were added to 200 μL of scintillation fluid and counted on a 1450 Microbeta (PerkinElmer), whereas samples containing the test article were kept frozen. Test article concentrations, including control samples, were evaluated by an LC-MS method.
Signal to noise for probe substrates was calculated by dividing the uptake of the probe substrate in transporter-expressing cells by the uptake of probe substrate in control cells not expressing the transporter of interest. […]

Q: How did the “% inhibition of BCRP-mediated transport of prazosin, reference inhibitor” value (BCRP) turn out when COc1ccc2c3c([nH]c2c1)[C@H](CC(C)C)N1C(=O)[C@H](CCC(=O)OC(C)(C)C)NC(=O)[C@@H]1C3 [Ko143] was run?
A: 90.4 ± 1.89%

Q: For Cc1ccc(C)c(OCCCC(C)(C)C(=O)O[C@@H]2O[C@H](C(=O)O)[C@@H](O)[C@H](O)[C@H]2O)c1 [gemfibrozil glucuronide, reference compound], which IC50 (CYP2C8) is on record?
A: 960 nM

Q: What does the source list for COc1ccc2[nH]c([S+]([O-])Cc3ncc(C)c(OC)c3C)nc2c1 (centres unmarked) [omeprazole, reference compound]?
A: fold induction at 72 h, 50 μM (CYP1A2 mRNA): 45.7 ± 4.51; fold induction at 72 h, 50 μM (CYP1A2): 50.6 ± 3.78

Q: With CCC1(c2ccccc2)C(=O)NC(=O)NC1=O [phenobarbital, reference compound] as the molecule, how does the fold induction at 72 h, 1000 μM (CYP2B6) read?
A: 5.03 ± 1.06

Q: What about the fold induction at 72 h, 1000 μM (CYP2B6 mRNA) of the same molecule?
A: 9.83 ± 0.992

Q: With CCCN(CCC)S(=O)(=O)c1ccc(C(=O)O)cc1 [probenecid, reference compound] as the molecule, how does the inhibition at 5 min, 100 μM (OAT3) read?
A: ≤ 98.3%

Q: C=C[C@H]1C[N@@]2CC[C@H]1C[C@@H]2[C@@H](O)c1ccnc2ccc(OC)cc12 [quinidine] was tested. Which inhibition at 5 min, 1000 μM (OCT2) did it give?
A: 98.5 ± 1.34%

Q: And the inhibition at 5 min, 1000 μM (OCT1)?
A: 91.2 ± 1.57%

Q: CO[C@H]1/C=C/O[C@@]2(C)Oc3c(C)c(O)c4c(O)c(c(/C=N/N5CCN(C)CC5)c(O)c4c3C2=O)NC(=O)/C(C)=C\C=C\[C@H](C)[C@H](O)[C@@H](C)[C@@H](O)[C@@H](C)[C@H](OC(C)=O)[C@@H]1C [rifampicin, reference compound] was tested. Which inhibition at 5 min, 100 μM (OATP1B1) did it give?
A: 98.8 ± 1.09%

Q: What about the inhibition at 5 min, 100 μM (OATP1B3) of the same molecule?
A: 99 ± 0.955%
